# Biological target: HPK1
# Assay: HPK1 Lantha Binding Assay ("Lanth")
# Conditions: Table B1-1, read-out: HPK1 Ki (μM) (Lanth)
# Procedure: HPK1 Lantha Binding Assay (“Lanth”)
# The compounds to be tested were diluted by preparing 12.5 uL/well of 5 mM compound (100×) in columns 2 and 13 and 10 ul/well of DMSO in columns 3-12, 14-23, and wells A1-H1 and I24-P24 of the compound plate using a Bravo liquid handling platform. For the reference compound, the top concentration was 1 mM. To the plate was added 10 ul 2 mM staurosporine in wells J1-P1 and A24-H24. A 11 point 5-fold compound serial dilution was performed using the Bravo liquid handling platform. From the plate were transferred 2.5 ul of the solutions from column 2 and column 13 to the 10 ul of DMSO in columns 3 and 14 & so on. The compound plate was centrifuged at 2500 rpm for 1 min. From the compound plate was transferred 80 nl of the compounds into an assay plate using the Echo liquid handler system. One compound plate makes two assay plates. Each assay plate is sealed and stored in an N2 cabinet.
# The following assay concentrations and times were used: 2 nM HPK1, 2 nM Eu-Anti-GST Ab, and 15 nM Tracer222, with 60 min incubation time.
# III. HPK Lantha Binding Assay:
# For the binding assay, 4 ul 2×HPK1 and Eu-anti-GST antibody were added to each well of the assay plate using a Multidrop reagent dispenser. The solutions were incubated in a 23 C incubator for 1 h. To each well of the assay plate was added 4 ul 2× Tracer-222 using a Multidrop reagent dispenser. The solutions were again incubated in a 23 C incubator for 1 h. The results of the assay were read using an Envision plate reader with the following parameters: TR_FRET, 340ex/615 and 665em; 100 usec Delay; and 200 usec integration.
# Compound Ki was analyzed using Morrison ki fit model in XL-fit • a. fit=(1−((((E+x)+(Ki*(1+(S/Kd))))−(((((E+x)+(Ki*(1+(S/Kd))))[…])−((4*E)*x))^0.5))/(2*E))) • res=(y-fit) • b. Parameters: • E=enzyme concentration • S=Tracer222 concentration, Kd=Tracer222 Kd • All measurements reported using the same units (uM)
# Exemplary compounds of Formula I or Ia were tested in the binding assays. The Ki data in Table B1-1 are based on the “Lanth” assay.
row,Compound,Ki [nM]
1,"Cc1ccc(O)cc1-c1cc2cc(NC(=O)[C@@H]3C[C@H]3c3cnn(C)c3)ncc2c(N)n1 [Compound 287, (1R,2R)—N-[8-amino-6-(5-hydroxy-2-methylphenyl)-2,7-naphthyridin-3-yl]-2-(1-methyl-1H-pyrazol-4-yl)cyclopropane-1-carboxamide]",0.078
2,"COCCn1cc([C@H]2C[C@@H]2C(=O)Nc2cc3cc(-c4cnccc4C)nc(N)c3cn2)cn1 [Compound 331, (1S,2S)—N-(8-amino-6-(4-methylpyridin-3-yl)-2,7-naphthyridin-3-yl)-2-(1-(2-methoxyethyl)-1H-pyrazol-4-yl)cyclopropanecarboxamide]",1.12
3,"Cc1ccncc1-c1cc2cc(NC(=O)[C@H]3C[C@@H]3C(C)(C)O)ncc2c(N)n1 [Compound 242, (1S,2S)—N-[8-amino-6-(4-methylpyridin-3-yl)-2,7-naphthyridin-3-yl]-2-(2-hydroxypropan-2-yl)cyclopropane-1-carboxamide]",31.2
4,"Cc1cc(-c2cnn(C)c2)ncc1-c1cc2cc(NC(=O)[C@@H]3C[C@H]3CC#N)ncc2c(N)n1 [Compound 237, (1R,2S)—N-(8-amino-6-(4-methyl-6-(1-methyl-1H-pyrazol-4-yl)pyridin-3-yl)-2,7-naphthyridin-3-yl)-2-(cyanomethyl)cyclopropanecarboxamide]",10.2
5,"CCc1ccncc1-c1cc2cc(NC(=O)c3cc(C)[nH]n3)ncc2c(N)n1 [Compound 70, 5-Methyl-1H-pyrazole-3-carboxylic acid [8-amino-6-(4-ethylpyridin-3-yl)-[2,7]naphthyridin-3-yl]amide]",27.6
6,"Cn1cc([C@H]2C[C@@H]2C(=O)Nc2cc3cc(-c4c(F)cccc4Cl)nc(N)c3cn2)cn1 [Compound 303, (1S,2S)—N-(8-amino-6-(2-chloro-6-fluorophenyl)-2,7-naphthyridin-3-yl)-2-(1-methyl-H-pyrazol-4-yl)cyclopropanecarboxamide]",0.027
7,"Cc1ccncc1-c1cc2cc(NC(=O)C3C4CNCC43)ncc2c(N)n1 (centres unmarked) [Compound 111, N-[8-amino-6-(4-methyl-3-pyridyl)-2,7-naphthyridin-3-yl]-3-azabicyclo[3.1.0]hexane-6-carboxamide]",2.38
8,"Cc1ccncc1-c1nc(N)c2cnc(NC(=O)Nc3cnn(C)c3)cc2c1Cl [Compound 163, 1-[8-amino-5-chloro-6-(4-methyl-3-pyridyl)-2,7-naphthyridin-3-yl]-3-(1-methylpyrazol-4-yl)urea]",1.2
9,"Cn1cc([C@H]2C[C@@H]2C(=O)Nc2cc3cc(-c4cnccc4CCO)nc(N)c3cn2)cn1 [Compound 215, (1S,2S)—N-(8-amino-6-(4-(2-hydroxyethyl)pyridin-3-yl)-2,7-naphthyridin-3-yl)-2-(1-methyl-1H-pyrazol-4-yl)cyclopropanecarboxamide]",1.19
10,"Cc1ccncc1-c1cc2cc(Nc3cnn([C@H]4CCCN(C)C4=O)c3)ncc2c(N)n1 [Compound 252, (3S)-3-(4-[[8-amino-6-(4-methylpyridin-3-yl)-2,7-naphthyridin-3-yl]amino]-1H-pyrazol-1-yl)-1-methylpiperidin-2-one]",0.569
11,"CCc1ccncc1-c1cc2cc(NC(=O)c3cc[nH]n3)ncc2c(N)n1 [Compound 71, 2H-Pyrazole-3-carboxylic acid [8-amino-6-(4-ethylpyridin-3-yl)-[2,7]naphthyridin-3-yl]amide]",10
12,"Cc1ccncc1-c1cc2cc(NC(=O)[C@@H]3C[C@H]3CC#N)ncc2c(N)n1 [Compound 194, (1R,2S)—N-(8-amino-6-(4-methylpyridin-3-yl)-2,7-naphthyridin-3-yl)-2-(cyanomethyl)cyclopropane-1-carboxamide]",0.967
13,"Cc1ccncc1-c1cc2cc(Nc3cnn([C@@H](C)C#N)c3)ncc2c(N)n1 [Compound 274, (S)-2-(4-(8-amino-6-(4-methylpyridin-3-yl)-2,7-naphthyridin-3-ylamino)-1H-pyrazol-1-yl)propanenitrile]",0.297
14,"Cn1cc([C@@H]2C[C@H]2C(=O)Nc2cc3cc(-c4cnccc4CCO)nc(N)c3cn2)cn1 [Compound 214, (1R,2R)—N-(8-amino-6-(4-(2-hydroxyethyl)pyridin-3-yl)-2,7-naphthyridin-3-yl)-2-(1-methyl-1H-pyrazol-4-yl)cyclopropanecarboxamide]",0.039
15,"Cc1ccncc1-c1cc2cc(NC(=O)[C@@H]3CC[C@@H]3C)ncc2c(N)n1 [Compound 323, (1R,2S)—N-(8-amino-6-(4-methylpyridin-3-yl)-2,7-naphthyridin-3-yl)-2-methylcyclobutanecarboxamide]",76.3
16,"Cc1c(N)cncc1-c1cc2cc(NC(=O)[C@H]3C[C@@H]3CC#N)ncc2c(N)n1 [Compound 247, (1S,2R)—N-[8-amino-6-(5-amino-4-methylpyridin-3-yl)-2,7-naphthyridin-3-yl]-2-(cyanomethyl)cyclopropane-1-carboxamide]",0.0219
17,"Cc1ccncc1-c1cc2cc(NC(=O)[C@H]3[C@H](C)[C@@H]3c3cnn(C)c3)ncc2c(N)n1 [Compound 327, (1S,2R,3S)—N-[8-amino-6-(4-methylpyridin-3-yl)-2,7-naphthyridin-3-yl]-2-methyl-3-(1-methyl-1H-pyrazol-4-yl)cyclopropane-1-carboxamide]",1.43
18,"COC(C)(C)C(=O)Nc1cc2cc(-c3cnccc3C)nc(N)c2cn1 [Compound 36, N-(8-amino-6-(4-methylpyridin-3-yl)-2,7-naphthyridin-3-yl)-2-methoxy-2-methylpropanamide]",4080
19,"CCc1ccncc1-c1cc2cc(NC(=O)CCC(N)=O)ncc2c(N)n1 [Compound 29, N′-[8-amino-6-(4-ethyl-3-pyridyl)-2,7-naphthyridin-3-yl]butanediamide]",14
20,"Cc1ccncc1-c1cc2cc(NC(=O)[C@H]3C[C@]34CCNC(=O)C4)ncc2c(N)n1 [Compound 313, (1S,3R)—N-[8-amino-6-(4-methylpyridin-3-yl)-2,7-naphthyridin-3-yl]-5-oxo-6-azaspiro[2.5]octane-1-carboxamide]",0.02
21,"Cn1cc([C@H]2C[C@@H]2C(=O)Nc2cc3cc(-c4ccccc4Cl)nc(N)c3cn2)cn1 (stereo in doubt) [Compound 304, (1S,2S)—N-[8-amino-6-(2-chlorophenyl)-2,7-naphthyridin-3-yl]-2-(1-methyl-1H-pyrazol-4-yl)cyclopropane-1-carboxamide]",3.02
22,"Cn1cc(-c2cc3cc(NC(=O)C4CC4)ncc3c(N)n2)cn1 [Compound 27, N-[8-amino-6-(1-methylpyrazol-4-yl)-2,7-naphthyridin-3-yl]cyclopropanecarboxamide]",1.08
23,"Cc1ccncc1-c1cc2cc(Nc3cnn(C(C)(C)C(=O)N(C)C)c3)ncc2c(N)n1 [Compound 183, 2-[4-[[8-amino-6-(4-methyl-3-pyridyl)-2,7-naphthyridin-3-yl]amino]pyrazol-1-yl]-N,N,2-trimethyl-propanamide]",0.98
24,"CCc1ccncc1-c1cc2cc(NC(=O)N(C)C)ncc2c(N)n1 [Compound 33, 3-[8-amino-6-(4-ethyl-3-pyridyl)-2,7-naphthyridin-3-yl]-1,1-dimethyl-urea]",34.1
25,"Cn1cc([C@H]2C[C@@H]2C(=O)Nc2cc3cc(-c4ccccc4Cl)nc(N)c3cn2)cn1 [Compound 305, (1R,2R)—N-[8-amino-6-(2-chlorophenyl)-2,7-naphthyridin-3-yl]-2-(1-methyl-H-pyrazol-4-yl)cyclopropane-1-carboxamide]",0.152
26,"Cc1ccncc1-c1cc2cc(NC(=O)[C@@H]3CC[C@H]3C)ncc2c(N)n1 [Compound 322, (1R,2R)—N-(8-amino-6-(4-methylpyridin-3-yl)-2,7-naphthyridin-3-yl)-2-methylcyclobutanecarboxamide]",14.8
27,"CCc1ccncc1-c1cc2cc(NC(=O)N[C@@H]3CCN(C)C3=O)ncc2c(N)n1 [Compound 65, (R)-1-(8-amino-6-(4-ethylpyridin-3-yl)-2,7-naphthyridin-3-yl)-3-(1-methyl-2-oxopyrrolidin-3-yl)urea]",5.47

# Same assay, conditions: Table B1-2, read-out: HPK1 Ki, L = Lanth
row,Compound,Ki [nM]
1,"COCc1cccc(C)c1-c1cc2cc(NC(=O)[C@@H]3C[C@H]3c3cnn(C)c3)ncc2c(N)n1 [Compound 428, (1R,2R)-N-(8-amino-6-(2-(methoxymethyl)-6-methylphenyl)-2,7-naphthyridin-3-yl)-2-(1-methyl-1H-pyrazol-4-yl)cyclopropane-1-carboxamide]",8
2,"Cc1cccc(F)c1-c1cc2cc(NC(=O)[C@@H]3[C@@H](C)[C@H]3c3cnn(C)c3)ncc2c(N)n1 [Compound 354, (1R,2S,3R)—N-[8-amino-6-(2-fluoro-6-methylphenyl)-2,7-naphthyridin-3-yl]-2-methyl-3-(1-methyl-1H-pyrazol-4-yl)cyclopropane-1-carboxamide]",0.083
